pKi: −log10 of the molar value. Read-outs that look alike come from different tables or passages of the source.
Key:
Format in all cases: biochemical
[1] = test system: trehalase derived from Nocardia sp. NK-2067; assay: Effect of metal chelating agents, enzyme inhibitors and metal ions on the novel trehalase
Procedure: The effect of various metal chelating agents, enzyme inhibitors and metal ions on the enzyme was investigated at a concentration of 1 mM.
(§1) To 1 ml of the substrate solution is added 0.02 ml of an enzyme solution, and reaction is carried out at 37° C. for 30 minutes. The reaction is stopped by heating at 100° C. for 3 minutes. To the reaction mixture is added 1 ml of the color-producing reagent, and reaction is carried out at 37° C. for 20 minutes, followed by measurement of the absorbance at 500 nm. A control solution is prepared by using water instead of the enzyme solution in the above procedure.

[2] = test system: trehalase derived from Rhodococcus globerulus ATCC 14898; assay: Test Example 1: specificity of inhibition by 1,5-anhydroglucitol; settings: for Inhibition (%): test sugar 1 mM, 100 mM phosphate buffer pH 7.0, 10 mg/ml trehalose, 10 minutes
Procedure: (§2) A reaction mixture was prepared by adding 10 mU/ml trehalase prepared in Reference Example 3, 0.81 mg/ml 4-aminoantipyrine, 1 mg/ml EMSE, 30 U/ml glucose oxidase, 10 U/ml peroxidase, and 1 mM test sugar shown in Table 4 to 100 mM phosphate buffer (pH 7.0). After addition of 10 mg/ml trehalose to the reaction mixture and stirring, the change in absorbance at 550 nm was measured with a spectrophotometer.

[3] = test system: trehalase derived from Nocardia sp. NK-2067; assay: Substrate specificity of the novel trehalase (activity on various substrates); settings: for Relative activity (%): substrate 1.75 mM, 100 mM phosphate buffer pH 5.5, activity on trehalose defined as 100
Procedure: The activity of the enzyme on various substrates was measured at a substrate concentration of 1.75 mM in 100 mM phosphate buffer (pH 5.5). The results are shown in Table 1 as relative activities, the activity on trehalose being defined as 100.
The enzyme activity is measured in the following manner.
(§3) Trehalose is dissolved in 100 mM phosphate buffer (pH 5.5) to give a concentration of 12.5 mM.
(§4) Glucose oxidase (Toyobo Co., Ltd., Grade II), peroxidase (Toyobo Co., Ltd., Grade III), 4-aminoantipyrine and phenol are dissolved in water to give final concentrations of 0.04 mg/ml, 0.04 mg/ml, 1.2 mM and 21 mM, respectively.
as §1
(§5) The trehalase activity is expressed by unit, one unit being defined as that amount of the enzyme which will hydrolyze 1 μmol of trehalose at 37° C. in one minute. The activity per milliliter of enzyme solution (U/ml) can be calculated from the net difference in absorbance (enzyme solution-control solution) according to the following equation. [formula]

[4] = test system: trehalase derived from Nocardia sp. NK-2067; assay: Inhibition specificity of the novel trehalase to various sugars, trehalose as substrate; settings: sugar at 1.75 mM
Procedure: The enzyme was also examined for inhibition specificity to various sugars at 1.75 mM using trehalose as a substrate.
as §3, §4, §1, §5

[5] = test system: trehalase derived from Nocardia sp. NK-2067; assay: Example 6: inhibition of trehalase, calibration curve; settings: pH 7.0, FIG. 9
Procedure: as §2, with “2,” for “3,”, “a sample containing 1,5-anhydroglucitol at a varied concentration” for “1 mM test sugar shown in Table 4”, “increase” for “change”
The same procedure as in Example 3 was repeated, except that trehalase derived from Nocardia sp. prepared in Example 5 was used.

[6] = test system: trehalose phosphorylase derived from Catellatospora ferruginea FERM BP-4329; assay: Example 1: inhibition of the decomposition activity of trehalose phosphorylase; settings: pH 7.0, FIG. 5
Procedure: A reaction mixture was prepared by adding 10 mU/ml trehalose phosphorylase derived from Catellatospora ferruginea prepared in Reference Example 1, 2.5 U/ml […] (Beckman Instruments, Inc.), 5 U/ml glucose-6-phosphate dehydrogenase (Sigma Chemical Co.), 10 mM NADP, and a sample containing 1,5-anhydroglucitol at a varied concentration to 100 mM phosphate buffer (pH 7.0). After addition of 10 mg/ml trehalose to the reaction mixture and stirring, the increase in absorbance at 340 nm was measured with a spectrophotometer.

[7] = test system: trehalase derived from Rhodococcus globerulus ATCC 14898; assay: Example 4: inhibition of trehalase, calibration curve; settings: pH 7.0, FIG. 8
Procedure: as §2, with “2,” for “3,”, “a sample containing 1,5-anhydroglucitol at a varied concentration” for “1 mM test sugar shown in Table 4”, “increase” for “change”
The same procedure as in Example 3 was repeated, except that trehalase derived from Rhodococcus globerulus prepared in Reference Example 3 was used.

[8] = test system: trehalose phosphorylase derived from Catellatospora ferruginea FERM BP-4329; assay: Example 2: inhibition of the synthesis activity of trehalose phosphorylase; settings: imidazole buffer pH 7.0, FIG. 6
Procedure: A reaction mixture (3 ml) was prepared by adding 10 mU/ml trehalose phosphorylase prepared in Reference Example 1, 50 mM glucose, 2 ml of a kit for the determination of inorganic phosphorus (Kyowa Medex Co., Ltd.), and a sample containing 1,5-anhydroglucitol at a varied concentration to 50 mM imidazole buffer (pH 7.0). After addition of 50 mM β-glucose-1-phosphate to the reaction mixture and stirring, the increase in absorbance at 550 nm was measured with a spectrophotometer.

[9] = test system: trehalase derived from Streptomyces aureofaciens ATCC 10762; assay: Example 3: inhibition of trehalase, calibration curve; settings: pH 7.0, FIG. 7
Procedure: as §2, with “2,” for “3,”, “a sample containing 1,5-anhydroglucitol at a varied concentration” for “1 mM test sugar shown in Table 4”, “increase” for “change”

[10] = biological target: trehalase derived from Nocardia sp. NK-2067; assay: Substrate and inhibitor affinity by Lineweaver-Burk plot; settings: pH 5.5, Lineweaver-Burk plot
Procedure: The Km value of the enzyme for trehalose at pH 5.5 as determined by Lineweaver-Burk plot [J. Am. Chem. Soc., 56, 658 (1934)] is 6.7 mM.

NC(=O)CI [Iodoacetamide]
Inhibition (%) ([1]; compound at 1 mM): 83.6%
Inhibition of the enzyme in words ([1]; summary of Table 3): inhibited

OC[C@H]1OC(O)[C@@H](O)[C@@H](O)[C@@H]1O (stereo partly drawn) [D-Mannose]
Inhibition (%) [2]: 0.5%

CCN(CC)C(=S)S [Diethyldithiocarbamic acid]
Inhibition (%) ([1]; compound at 1 mM): 51.0%

[Ba+2].[Cl-].[Cl-] [BaCl2]
Inhibition (%) ([1]; compound at 1 mM): 40.7%

OC[C@H]1O[C@H](O[C@H]2[C@H](O)[C@@H](O)[C@H](O)O[C@@H]2CO)[C@H](O)[C@@H](O)[C@@H]1O [Maltose]
Relative activity (%) [3]: 0%
Inhibition (%) [4]: 0%
Inhibition (%) [2]: 0%

CCN1C(=O)C=CC1=O [N-Ethylmaleimide]
Inhibition (%) ([1]; compound at 1 mM): 21.9%

O=S(=O)([O-])[O-].[Zn+2] [ZnSO4]
Inhibition (%) ([1]; compound at 1 mM): 53.4%

[Cl-].[Cl-].[Co+2] [CoCl2]
Inhibition (%) ([1]; compound at 1 mM): 20.4%

N[C@H]1[C@@H](O[C@H]2O[C@H](CO)[C@@H](O)[C@H](O)[C@H]2O)O[C@H](CO)[C@@H](O)[C@@H]1O [Trehalosamine]
Relative activity (%) [3]: 0.5%

[N-]=[N+]=[N-] [Sodium azide]
Inhibition (%) ([1]; compound at 1 mM): 22.8%

OC[C@H]1OC[C@H](O)[C@@H](O)[C@@H]1O [1,5-Anhydroglucitol]
Inhibition (%) [4]: 80.7%
Relationship between inhibition rate and concentration [5]: good linear relationship
Relationship between inhibition rate and concentration [6]: good linear relationship
Specificity of inhibition in words ([2]; conclusion from Table 4): inhibited specifically
Inhibition (%) [2]: 45.0%
Relationship between inhibition rate and concentration [7]: good linear relationship
Relationship between inhibition rate and concentration [8]: good linear relationship
Relationship between inhibition rate and concentration [9]: good linear relationship
pKi ([10]; read-out: Ki value of the enzyme): 3.48

C[C@@H]1OC(O)[C@@H](O)[C@H](O)[C@@H]1O (stereo partly drawn) [L-Fucose]
Inhibition (%) [2]: 0%

OC1OC[C@@H](O)[C@H](O)[C@H]1O (stereo partly drawn) [D-Xylose]
Inhibition (%) [2]: 0%

OC[C@H]1O[C@@](CO)(O[C@H]2O[C@H](CO)[C@@H](O)[C@H](O)[C@H]2O)[C@@H](O)[C@@H]1O [Sucrose]
Relative activity (%) [3]: 0%
Inhibition (%) [4]: 0%
Inhibition (%) [2]: 0%

NO [Hydroxylamine]
Inhibition (%) ([1]; compound at 1 mM): 81.2%
Inhibition of the enzyme in words ([1]; summary of Table 3): inhibited

OC[C@H]1O[C@H](O[C@H]2C(O)O[C@H](CO)[C@@H](O)[C@@H]2O)[C@H](O)[C@@H](O)[C@@H]1O (stereo partly drawn) [Kojibiose]
Relative activity (%) [3]: 0%
Inhibition (%) [4]: 0%

O=C(CO)[C@@H](O)[C@H](O)[C@H](O)CO [D-Fructose]
Inhibition (%) [2]: 0%

c1cnc2c(c1)ccc1cccnc12 [1,10-Phenanthroline]
Inhibition (%) ([1]; compound at 1 mM): 88.5%
Inhibition of the enzyme in words ([1]; summary of Table 3): inhibited

OC[C@H]1O[C@@H](O[C@H]2[C@H](O)[C@@H](O)C(O)O[C@@H]2CO)[C@H](O)[C@@H](O)[C@H]1O (stereo partly drawn) [Lactose]
Relative activity (%) [3]: 0%
Inhibition (%) [4]: 0%

O=C(O)c1cc[c]([Hg][OH])cc1 [p-Mercuribenzoic acid]
Inhibition (%) ([1]; compound at 1 mM): 94.7%
Inhibition of the enzyme in words ([1]; summary of Table 3): inhibited

O=C1CCC(=O)N1Br [N-Bromosuccinimide]
Inhibition (%) ([1]; compound at 1 mM): 23.4%

c1ccc(-c2ccccn2)nc1 [2,2'-Bipyridyl]
Inhibition (%) ([1]; compound at 1 mM): 60.0%
Inhibition of the enzyme in words ([1]; summary of Table 3): inhibited

C[C@H]1OC(O)[C@H](O)[C@@H](O)[C@H]1O (stereo partly drawn) [D-Fucose]
Inhibition (%) [2]: 0%

O=S(=O)([O-])[O-].[Ni+2] [NiSO4, nickel sulfate]
Inhibition (%) [1]: 62.1%
Inhibition of the enzyme in words [1]: inhibited

O=C(O)CN(CCN(CC(=O)O)CC(=O)O)CC(=O)O [EDTA, ethylenediaminetetraacetic acid]
Inhibition (%) [1]: 67.6%
Inhibition of the enzyme in words [1]: inhibited

N[C@H]1C(O)O[C@H](CO)[C@@H](O)[C@@H]1O (stereo partly drawn) [D-Glucosamine]
Inhibition (%) [2]: 0%

CC(=O)N[C@H]1C(O)O[C@H](CO)[C@@H](O)[C@@H]1O (stereo partly drawn) [N-Acetyl-D-glucosamine]
Inhibition (%) [2]: 0%

OC[C@H]1OC(O)[C@H](O)[C@@H](O)[C@H]1O (stereo partly drawn) [D-Galactose]
Inhibition (%) [2]: 0.2%

OC[C@H]1O[C@H](O[C@H]2[C@H](O)[C@@H](CO)OC(O)[C@@H]2O)[C@H](O)[C@@H](O)[C@@H]1O (stereo partly drawn) [Nigerose]
Relative activity (%) [3]: 0%
Inhibition (%) [4]: 0%

OC[C@H]1O[C@H](O[C@H]2O[C@H](CO)[C@@H](O)[C@H](O)[C@H]2O)[C@H](O)[C@@H](O)[C@@H]1O [Trehalose]
Substrate specificity in words ([3]; conclusion from Table 1): specifically acts on
Relative activity (%) [3]: 100%
Km ([10]; read-out: Km value of the enzyme): 6.7 mM
